# Measurements published in US9040067B2, “Disinfecting and antimicrobial compositions” (priority 2005, dated 2015).
# Key:
# [1] = Solubilization of dehydroacetic acid by ethyl lactate; format: physicochemical; details: 5.0 parts of dehydroacetic acid in 100 ml of ethyl lactate, room temperature
# Pseudomonas aeruginosa = assay: MIC/MLC in brain heart infusion broth; format: cell-based; details: for MIC, Concentration of Lactic Esters 0.5%: 0.5% ester; for MIC, Concentration of Lactic Esters 1%: 1% ester; for MIC, Concentration of Lactic Esters 2%: 2% ester; for MIC, Concentration of Lactic Esters 3%: 3% ester; for MIC, Concentration of Lactic Esters 4%: 4% ester; for MIC, Concentration of Lactic Esters 5%: 5% ester; as to MIC, Concentration of Lactic Esters 0.5%: key: + = growth (inactive); − = no growth (active); as to MIC, Concentration of Lactic Esters 1%: key: + = growth (inactive); − = no growth (active); as to MIC, Concentration of Lactic Esters 2%: key: + = growth (inactive); − = no growth (active); as to MIC, Concentration of Lactic Esters 3%: key: + = growth (inactive); − = no growth (active); as to MIC, Concentration of Lactic Esters 4%: key: + = growth (inactive); − = no growth (active); as to MIC, Concentration of Lactic Esters 5%: key: + = growth (inactive); − = no growth (active)
# Description: (§1) The tests were carried out in 10 ml of brain heart infusion broth. The esters were serially diluted in brain heart infusion broth of samples of, 0.1, 0.2, 0.3, 0.4 and 0.5/10 ml and challenged with 0.1 ml of 1/100 dilution of 24 hr old brain heart infusion bacterial culture. The lowest concentration determined the minimum inhibitory concentration (MIC). The samples were observed after 48 hrs at 37° C. A loopful from tubes without growth were plated on BHI agar plates and observed for growth for 24 to 48 hrs at 37° C. The samples with the lowest concentration of the ester without bacterial growth on the plates represented the minimum lethal concentration (MLC).
# (§2) A series of samples of (a) methyl lactate, (b) ethyl lactate and (c) butyl lactate, alone, and in admixture with varying amounts of decyl lactate and sodium dodecyl sulfates were used to test minimum inhibitory activity (MIC) by the method described in Example II, against the cultures of E. coli 0157 H7, Listeria monocytogenes, Staphylococcus aureus, Salmonella typhi, and Pseudomonas aeruginosa.
# Listeria monocytogenes = assay: MIC/MLC in brain heart infusion broth; format: cell-based
# Description: as §1, §2
# E. coli 0157;H7 = assay: MIC/MLC in brain heart infusion broth; format: cell-based; also: key: + = growth (inactive); − = no growth (active)
# Description: as §1, §2
# Saccharomyces cerevisiae = assay: MIC and MLC against yeast in Sab. broth; format: cell-based; details: for Lethal (MLC) Concentration 1% / Inhibitory (MIC) Concentration 1%: 1% ester; for Lethal (MLC) Concentration 1.5% / Inhibitory (MIC) Concentration 1.5%: 1.5% ester; for Lethal (MLC) Concentration 2% / Inhibitory (MIC) Concentration 2%: 2% ester; for Lethal (MLC) Concentration 3% / Inhibitory (MIC) Concentration 3%: 3% ester; for Lethal (MLC) Concentration 4% / Inhibitory (MIC) Concentration 4%: 4% ester; as to Lethal (MLC) Concentration 1%: key: + = growth (inactive); − = no growth (active); as to Lethal (MLC) Concentration 1.5%: key: + = growth (inactive); − = no growth (active); as to Lethal (MLC) Concentration 2%: key: + = growth (inactive); − = no growth (active); as to Lethal (MLC) Concentration 3%: key: + = growth (inactive); − = no growth (active); as to Lethal (MLC) Concentration 4%: key: + = growth (inactive); − = no growth (active)
# Description: A 0.1 ml of 1/100 dilution of 48 hr old culture of S. cerevisiae was used as inoculum. The test was performed using Sab. broth. The tubes were incubated at room temperature 25° C. The test was read after 48 hrs.
# Staphylococcus aureus = assay: MIC/MLC in brain heart infusion broth; format: cell-based
# Description: as §1, with “The esters were serially diluted in brain heart infusion broth of samples of, 0.1, 0.2, 0.3, 0.4 and 0.5/10 ml and challenged with 0.1 ml of 1/100 dilution of 24 hr old brain heart infusion bacterial culture.” left out
# as §2
# Salmonella typhimurium = assay: MIC/MLC in brain heart infusion broth; format: cell-based
# Description: as §1
# Salmonella typhi = assay: MIC in brain heart infusion broth; format: cell-based; details: Table 4; also: key: + = growth (inactive); − = no growth (active)
# Description: as §1, §2
# [2] = 1%, second MLC line of organism
# [3] = 2%, second MLC line of organism
# [4] = 3%, second MLC line of organism
# [5] = 4%, second MLC line of organism
# [6] = 5%, second MLC line of organism
structure (smiles),measurement,setting,value
CC(=O)C1C(=O)C=C(C)OC1=O (centres unmarked) [dehydroacetic acid],solubility in ethyl lactate (appearance of solution),[1],clear solution
"CCOC(=O)C(C)O (centres unmarked) [Ethyl lactate, ethyl lactate]","MIC, Concentration of Lactic Esters 0.5%",Pseudomonas aeruginosa; SDS 0.0 ppm,+
same,"MIC, Concentration of Lactic Esters 0.5%",Pseudomonas aeruginosa; SDS 50 ppm,−
same,"MIC, Concentration of Lactic Esters 0.5%",Pseudomonas aeruginosa; SDS 100 ppm,−
same,"MIC, Concentration of Lactic Esters 0.5%",Pseudomonas aeruginosa; SDS 200 ppm,−
same,"MLC, Concentration of Ethyl lactate 0.5%",Pseudomonas aeruginosa; first MLC line of organism,+
same,"MLC, Concentration of Ethyl lactate 0.5%",Pseudomonas aeruginosa; second MLC line of organism,+
same,"MIC, Concentration of Lactic Esters 1%",Pseudomonas aeruginosa; SDS 0.0 ppm,+
same,"MIC, Concentration of Lactic Esters 1%",Pseudomonas aeruginosa; SDS 50 ppm,−
same,"MIC, Concentration of Lactic Esters 1%",Pseudomonas aeruginosa; SDS 100 ppm,−
same,"MIC, Concentration of Lactic Esters 1%",Pseudomonas aeruginosa; SDS 200 ppm,−
same,"MLC, Concentration of Ethyl lactate 1%",Pseudomonas aeruginosa; first MLC line of organism,+
same,"MLC, Concentration of Ethyl lactate 1%",Pseudomonas aeruginosa; second MLC line of organism,+
same,"MIC, Concentration of Lactic Esters 2%",Pseudomonas aeruginosa; SDS 0.0 ppm,−
same,"MIC, Concentration of Lactic Esters 2%",Pseudomonas aeruginosa; SDS 50 ppm,−
same,"MIC, Concentration of Lactic Esters 2%",Pseudomonas aeruginosa; SDS 100 ppm,−
same,"MIC, Concentration of Lactic Esters 2%",Pseudomonas aeruginosa; SDS 200 ppm,−
same,"MLC, Concentration of Ethyl lactate 2%",Pseudomonas aeruginosa; first MLC line of organism,−
same,"MLC, Concentration of Ethyl lactate 2%",Pseudomonas aeruginosa; second MLC line of organism,+
same,"MIC, Concentration of Lactic Esters 3%",Pseudomonas aeruginosa; SDS 0.0 ppm,−
same,"MIC, Concentration of Lactic Esters 3%",Pseudomonas aeruginosa; SDS 50 ppm,−
same,"MIC, Concentration of Lactic Esters 3%",Pseudomonas aeruginosa; SDS 100 ppm,−
same,"MIC, Concentration of Lactic Esters 3%",Pseudomonas aeruginosa; SDS 200 ppm,−
same,"MLC, Concentration of Ethyl lactate 3%",Pseudomonas aeruginosa; first MLC line of organism,−
same,"MLC, Concentration of Ethyl lactate 3%",Pseudomonas aeruginosa; second MLC line of organism,+
same,"MIC, Concentration of Lactic Esters 4%",Pseudomonas aeruginosa; SDS 0.0 ppm,−
same,"MIC, Concentration of Lactic Esters 4%",Pseudomonas aeruginosa; SDS 50 ppm,−
same,"MIC, Concentration of Lactic Esters 4%",Pseudomonas aeruginosa; SDS 100 ppm,−
same,"MIC, Concentration of Lactic Esters 4%",Pseudomonas aeruginosa; SDS 200 ppm,−
same,"MLC, Concentration of Ethyl lactate 4%",Pseudomonas aeruginosa; first MLC line of organism,−
same,"MLC, Concentration of Ethyl lactate 4%",Pseudomonas aeruginosa; second MLC line of organism,−
same,"MIC, Concentration of Lactic Esters 5%",Pseudomonas aeruginosa; SDS 0.0 ppm,−
same,"MIC, Concentration of Lactic Esters 5%",Pseudomonas aeruginosa; SDS 50 ppm,−
same,"MIC, Concentration of Lactic Esters 5%",Pseudomonas aeruginosa; SDS 100 ppm,−
same,"MIC, Concentration of Lactic Esters 5%",Pseudomonas aeruginosa; SDS 200 ppm,−
same,"MLC, Concentration of Ethyl lactate 5%",Pseudomonas aeruginosa; first MLC line of organism,−
same,"MLC, Concentration of Ethyl lactate 5%",Pseudomonas aeruginosa; second MLC line of organism,−
same,"MLC, Concentration of Ethyl lactate 0.5%",Listeria monocytogenes; first MLC line of organism,+
same,"MLC, Concentration of Ethyl lactate 0.5%",Listeria monocytogenes; second MLC line of organism,+
same,"MIC, growth at 1%","Listeria monocytogenes; 1%, Table 4",+
same,"MLC, Concentration of Ethyl lactate 1%","Listeria monocytogenes; 1%, first MLC line of organism",+
same,"MLC, Concentration of Ethyl lactate 1%",Listeria monocytogenes; [2],+
same,"MIC, growth at 2%","Listeria monocytogenes; 2%, Table 4",+
same,"MLC, Concentration of Ethyl lactate 2%","Listeria monocytogenes; 2%, first MLC line of organism",+
same,"MLC, Concentration of Ethyl lactate 2%",Listeria monocytogenes; [3],+
same,"MIC, growth at 3%","Listeria monocytogenes; 3%, Table 4",+
same,"MLC, Concentration of Ethyl lactate 3%","Listeria monocytogenes; 3%, first MLC line of organism",+
same,"MLC, Concentration of Ethyl lactate 3%",Listeria monocytogenes; [4],+
same,"MIC, growth at 4%","Listeria monocytogenes; 4%, Table 4",+
same,"MLC, Concentration of Ethyl lactate 4%","Listeria monocytogenes; 4%, first MLC line of organism",+
same,"MLC, Concentration of Ethyl lactate 4%",Listeria monocytogenes; [5],+
same,"MIC, growth at 5%","Listeria monocytogenes; 5%, Table 4",+
same,"MLC, Concentration of Ethyl lactate 5%","Listeria monocytogenes; 5%, first MLC line of organism",+
same,"MLC, Concentration of Ethyl lactate 5%",Listeria monocytogenes; [6],+
same,"MLC, Concentration of Ethyl lactate 0.5%",E. coli 0157;H7; first MLC line of organism,+
same,"MLC, Concentration of Ethyl lactate 0.5%",E. coli 0157;H7; second MLC line of organism,+
same,"MIC, growth at 1%","E. coli 0157;H7; 1%, Table 4",+
same,"MLC, Concentration of Ethyl lactate 1%","E. coli 0157;H7; 1%, first MLC line of organism",+
same,"MLC, Concentration of Ethyl lactate 1%",E. coli 0157;H7; [2],+
same,"MIC, growth at 2%","E. coli 0157;H7; 2%, Table 4",+
same,"MLC, Concentration of Ethyl lactate 2%","E. coli 0157;H7; 2%, first MLC line of organism",−
same,"MLC, Concentration of Ethyl lactate 2%",E. coli 0157;H7; [3],+
same,"MIC, growth at 3%","E. coli 0157;H7; 3%, Table 4",+
same,"MLC, Concentration of Ethyl lactate 3%","E. coli 0157;H7; 3%, first MLC line of organism",−
same,"MLC, Concentration of Ethyl lactate 3%",E. coli 0157;H7; [4],−
same,"MIC, growth at 4%","E. coli 0157;H7; 4%, Table 4",−
same,"MLC, Concentration of Ethyl lactate 4%","E. coli 0157;H7; 4%, first MLC line of organism",−
same,"MLC, Concentration of Ethyl lactate 4%",E. coli 0157;H7; [5],−
same,"MIC, growth at 5%","E. coli 0157;H7; 5%, Table 4",−
same,"MLC, Concentration of Ethyl lactate 5%","E. coli 0157;H7; 5%, first MLC line of organism",−
same,"MLC, Concentration of Ethyl lactate 5%",E. coli 0157;H7; [6],−
same,Lethal (MLC) Concentration 1%,Saccharomyces cerevisiae,+
same,Inhibitory (MIC) Concentration 1%,"Saccharomyces cerevisiae; 48 hrs, 25° C",+
same,Inhibitory (MIC) Concentration 1%,Saccharomyces cerevisiae; Sodium lauryl sulfate 200 ppm,+
same,Lethal (MLC) Concentration 1%,Saccharomyces cerevisiae; Sodium lauryl sulfate 200 ppm,+
same,Lethal (MLC) Concentration 1.5%,Saccharomyces cerevisiae,+
same,Inhibitory (MIC) Concentration 1.5%,"Saccharomyces cerevisiae; 48 hrs, 25° C",−
same,Inhibitory (MIC) Concentration 1.5%,Saccharomyces cerevisiae; Sodium lauryl sulfate 200 ppm,−
same,Lethal (MLC) Concentration 1.5%,Saccharomyces cerevisiae; Sodium lauryl sulfate 200 ppm,+
same,Lethal (MLC) Concentration 2%,Saccharomyces cerevisiae,−
same,Inhibitory (MIC) Concentration 2%,"Saccharomyces cerevisiae; 48 hrs, 25° C",−
same,Inhibitory (MIC) Concentration 2%,Saccharomyces cerevisiae; Sodium lauryl sulfate 200 ppm,−
same,Lethal (MLC) Concentration 2%,Saccharomyces cerevisiae; Sodium lauryl sulfate 200 ppm,−
same,Lethal (MLC) Concentration 3%,Saccharomyces cerevisiae,−
same,Inhibitory (MIC) Concentration 3%,"Saccharomyces cerevisiae; 48 hrs, 25° C",−
same,Inhibitory (MIC) Concentration 3%,Saccharomyces cerevisiae; Sodium lauryl sulfate 200 ppm,−
same,Lethal (MLC) Concentration 3%,Saccharomyces cerevisiae; Sodium lauryl sulfate 200 ppm,−
same,Lethal (MLC) Concentration 4%,Saccharomyces cerevisiae,−
same,Inhibitory (MIC) Concentration 4%,"Saccharomyces cerevisiae; 48 hrs, 25° C",−
same,Inhibitory (MIC) Concentration 4%,Saccharomyces cerevisiae; Sodium lauryl sulfate 200 ppm,−
same,Lethal (MLC) Concentration 4%,Saccharomyces cerevisiae; Sodium lauryl sulfate 200 ppm,−
same,"MLC, Concentration of Ethyl lactate 0.5%",Staphylococcus aureus; first MLC line of organism,+
same,"MLC, Concentration of Ethyl lactate 0.5%",Staphylococcus aureus; second MLC line of organism,+
same,"MIC, growth at 1%","Staphylococcus aureus; 1%, Table 4",+
same,"MLC, Concentration of Ethyl lactate 1%","Staphylococcus aureus; 1%, first MLC line of organism",+
same,"MLC, Concentration of Ethyl lactate 1%",Staphylococcus aureus; [2],+
same,"MIC, growth at 2%","Staphylococcus aureus; 2%, Table 4",+
same,"MLC, Concentration of Ethyl lactate 2%","Staphylococcus aureus; 2%, first MLC line of organism",+
same,"MLC, Concentration of Ethyl lactate 2%",Staphylococcus aureus; [3],+
same,"MIC, growth at 3%","Staphylococcus aureus; 3%, Table 4",+
same,"MLC, Concentration of Ethyl lactate 3%","Staphylococcus aureus; 3%, first MLC line of organism",+
same,"MLC, Concentration of Ethyl lactate 3%",Staphylococcus aureus; [4],+
same,"MIC, growth at 4%","Staphylococcus aureus; 4%, Table 4",+
same,"MLC, Concentration of Ethyl lactate 4%","Staphylococcus aureus; 4%, first MLC line of organism",+
same,"MLC, Concentration of Ethyl lactate 4%",Staphylococcus aureus; [5],+
same,"MIC, growth at 5%","Staphylococcus aureus; 5%, Table 4",+
same,"MLC, Concentration of Ethyl lactate 5%","Staphylococcus aureus; 5%, first MLC line of organism",−
same,"MLC, Concentration of Ethyl lactate 5%",Staphylococcus aureus; [6],+
same,"MLC, Concentration of Ethyl lactate 0.5%",Salmonella typhimurium; first MLC line of organism,+
same,"MLC, Concentration of Ethyl lactate 0.5%",Salmonella typhimurium; second MLC line of organism,+
same,"MLC, Concentration of Ethyl lactate 1%",Salmonella typhimurium; first MLC line of organism,+
same,"MLC, Concentration of Ethyl lactate 1%",Salmonella typhimurium; second MLC line of organism,+
same,"MLC, Concentration of Ethyl lactate 2%",Salmonella typhimurium; first MLC line of organism,+
same,"MLC, Concentration of Ethyl lactate 2%",Salmonella typhimurium; second MLC line of organism,+
same,"MLC, Concentration of Ethyl lactate 3%",Salmonella typhimurium; first MLC line of organism,+
same,"MLC, Concentration of Ethyl lactate 3%",Salmonella typhimurium; second MLC line of organism,+
same,"MLC, Concentration of Ethyl lactate 4%",Salmonella typhimurium; first MLC line of organism,−
same,"MLC, Concentration of Ethyl lactate 4%",Salmonella typhimurium; second MLC line of organism,+
same,"MLC, Concentration of Ethyl lactate 5%",Salmonella typhimurium; first MLC line of organism,−
same,"MLC, Concentration of Ethyl lactate 5%",Salmonella typhimurium; second MLC line of organism,+
same,"MIC, growth at 1%",Salmonella typhi; 1%,+
same,"MIC, growth at 2%",Salmonella typhi; 2%,+
same,"MIC, growth at 3%",Salmonella typhi; 3%,+
same,"MIC, growth at 4%",Salmonella typhi; 4%,−
same,"MIC, growth at 5%",Salmonella typhi; 5%,−
